Measured values: article PMC9123247 (Drug Design, Development and Therapy, 2022)
Like-named read-outs stand apart in the source and are kept apart here.

How the values were obtained:
[1] = tested on: T-47D breast cancer cell line; assay: MTT anti-proliferative assay, breast cancer cell line T-47D; type: cell-based; settings: Homo sapiens, T47D
[2] = tested on: A549 lung cancer cell line; assay: MTT anti-proliferative assay, lung cancer cell line A549; type: cell-based; settings: Homo sapiens, A549, read-out: IC50 (µM) A549, MTT assay, lung cancer cell line A549; average ± standard deviation of independent triplicates

IC50 [2] [µM] | IC50 ([1]; read-out: IC50 (µM) T-47D, MTT assay, breast cancer cell line T-47D, average ± standard deviation of independent triplicates) [µM] | SMILES | IC50 ([1]; read-out: IC50 (µM) T-47D) [µM]
– | – | CN[C@@H]1C[C@H]2O[C@@](C)([C@@H]1OC)n1c3ccccc3c3c4c(c5c6ccccc6n2c5c31)C(=O)NC4 [Staurosporine] | 6.83 ± 1.03
5.73 ± 0.69 | 8.14 ± 0.97 | C#Cc1cccc(Nc2ncnc3cc(OCCOC)c(OCCOC)cc23)c1 [Erlotinib] | –
